The results in this text go back to patent US20220249538A1, “TREATMENT AGENT FOR SEX HORMONE-INSENSITIVE GREB1-POSITIVE TUMORS” (OSAKA UNIVERSITY, priority 2019, published 2022).

Holding throughout (type): cell-based, human
The test system of one data set is HepG2 cells. The data set is described as follows: Cell proliferation assay, two-dimensional culture (plastic dish), Cyquant. The procedure:
Cells were seeded on a plate at 1.0×10^4 cells/mL, and, after 12 hours, the medium was replaced with a medium containing 10% serum. While the cell number was counted every 48 hours, the cells were cultured up to 10 days. The measurement of the cell number was performed using Cyquant NF assays (Life Technologies/Thermo Fisher Scientific) according to protocols recommended by the manufacturer.
Mock HepG2 cells (having a vector only, containing no GREB1) or GREB1-transduced HepG2 cells were transfected with control siRNA or two different types of siRNA (GREB1 #1 siRNA and GREB1 #2 siRNA), then two-dimensional culture (plastic dish culture) was performed, and a relative cell number was calculated by Cyquant assay overtime. As a result, in GREB1 knockdown, proliferative capacity of HepG2 cells in two-dimensional culture was reduced. However, when GREB1-transduced HepG2 cells were transfected with siRNAs against GREB1 (GREB1 #1 siRNA/GREB1 and GREB1 #2 siRNA/GREB1), the proliferative capacity of HepG2 cells was not affected (see a of FIG. 4).

For data set [1], the system named is PAI-1 gene locus (exon 2). Briefly: Chromatin immunoprecipitation with anti-acetylated histone 4 antibody, PAI-1 exon 2. Conditions: HepG2 cells; presence or absence of 10 ng/mL TGFβ for 30 minutes. The procedure: Confluent HepG2 cells in a 10 cm dish were stimulated in the presence or absence of 5 ng/ml of TGFβ1 for 3 hours. Thereafter, the cells were allowed to crosslink using 1% formaldehyde at room temperature for 10 minutes, and the crosslinking reaction was terminated with 0.125 M glycine. The cells were washed three times with cold PBS, and thereafter the cells were removed and collected. Further, the cells were sedimented by centrifugation, and lysed with a sodium dodecyl sulfate (SDS) lysis buffer (50 mM Tris/HCl [pH 8.0], 10 mM EDTA, and 0.5% SDS). The cell lysates were subjected to ultrasonication to shear DNA into DNA fragments having sizes of 200 to 1000 bp. Supernatant of the sheared chromatin was diluted with ChIP dilution buffer (16.7 mM Tris/HCl [pH 8.0], 167 mM NaCl, 1.2 mM EDTA, and 1.1% Triton X-100) containing a protease inhibitor and a phosphatase inhibitor, and precleared by adding salmon sperm DNA/protein A-agarose beads (Millipore, Billerica, Mass., USA). […]
Further, HepG2 cells transfected with control siRNA or GREB1 #2 siRNA were cultured in the presence or absence of 10 ng/mL of TGFβ for 30 minutes. […] Next, the exon 2 domain of PAI contained in the cell lysates (Input) and immunoprecipitates (IP) was analyzed by PCR using domain-specific primers.

A further data set concerns Smad2/3. The data set is described as follows: Smad2/3 immunostaining and immunoprecipitation in HepG2 cells. The procedure: HepG2 cells (100 mm diameter dish) were lysed with 400 μl of a cell lysis buffer (10 mM Tris-HCl [pH 7.4], 140 mM NaCl, 5 mM EDTA, 1% NP40, 25 mM NaF, […], and 10 mM PMSF). The resulting lysate was immunoprecipitated with anti-Smad2/3 antibody, and the immunoprecipitates were probed with predetermined antibodies.
Further, HepG2 cells transfected with control siRNA or GREB1 #2 siRNA were cultured in the presence or absence of 10 ng/mL of TGFβ for 30 minutes. The cultured cells were fixed, and immunostained with anti-Smad2/3 antibody (see c of FIG. 8). Further, cell lysates of the cultured cells were immunoprecipitated with anti-Smad2/3 antibody. Next, the resulting cell lysates (Input) and immunoprecipitates (IP) were reacted with anti-Smad4 antibody or anti-Smad2/3 antibody (see d of FIG. 8). In addition, the cell lysates of the cultured cells were reacted with anti-GREB1 antibody, anti-phosphorylated Smad2/3 (pSmad2/3) antibody, or anti-Smad2/3 antibody (see e of FIG. 8).
Lysates of HepG2 cells transfected with control siRNA or GREB1 #2 siRNA were immunoprecipitated with anti-Smad2/3 antibody. Next, the resulting cell lysates (input) and immunoprecipitates (IP) were reacted with anti-p300 antibody, anti-GREB1 antibody, or anti-Smad2/3 antibody (see e of FIG. 7). […]

In another data set the test system is GREB1. The data set is described as follows: GREB1 expression in HepG2 cells after GREB1 siRNA or GREB1 ASO (cell lysates probed with anti-GREB1 antibody). Conditions: siRNA 10 nm, lysate probing. The procedure: Phosphorothioated I5-mer antisense oligonucleotides (ASOs) containing AmNA monomers were prepared (synthesized by GeneDesign (Ibaraki, Japan)). In the present specification, “hGREB1-6424-AmNA (15)” is sometimes simply referred to as “ASO-6424” or “GREB1 ASO-6424”. Similar abbreviations are used for describing other ASOs. Using RNAiMAX (Invitrogen, Carlsbad, Calif., USA), HepG2 or COLO679 cells were transfected with 10 nM of ASOs. In experiments, the cells were used from 36 to 48 hours after transfection.
Using RNAiMAX (Life Technologies/Thermo Fisher Scientific), HepG2 cells, Huh6 cells, Hep3B cells, JHH7 cells, and SKMEL28 cells were each transfected with each siRNA (10 nm). In experiments, the cells were used from 48 to 120 hours after transfection.
As reported previously, knockdown of β-catenin decreased HepG2 cell proliferation (see a of FIG. 3). […] Thus, to elucidate the role of GREB1 in HepG2 cells, knockdown of GREB1 was carried out using two different siRNAs.
Next, HepG2 cells were transfected with control ASO or each of the above-described GREB1 ASOs, cultured in a medium containing 10% FBS for 2 days, and the cell lysates were probed with anti-GREB1 antibody and anti-HSP90 antibody.

For “GREB1 #2 siRNA: siRNA against human GREB1; sense 5′-CCUCCUACAAAGCAAUAUUTT-3′ (SEQ ID NO: 6), antisense SEQ ID NO: 7 (antisense AAUAUUGCUUUGUAGGAGGTT; chemistry not given here)”, the “proliferative capacity of HepG2 cells in two-dimensional culture” value in the data set with HepG2 cells (GREB1-transduced HepG2 cells) was “not affected”; in the data set with HepG2 cells (mock HepG2 cells, relative cell number by Cyquant over time), “reduced”. Besides, the “amount of acetylated histone 4 in the PAI-1 gene locus (exon 2)” value in data set [1] is reported as “increased”. Moreover, the “TGFβ-dependent nuclear transport of Smad2/3, complex formation of Smad2/3 and Smad4, phosphorylation of Smad2/3” value in the data set on Smad2/3 (10 ng/mL TGFβ for 30 minutes) is “no effect”. The “binding of Smad2/3 to p300” value in the data set with Smad2/3 (anti-Smad2/3 immunoprecipitation) is “increased”. Further, the “knockdown of GREB1 (anti-GREB1 antibody)” value in the data set with GREB1 is given as “knocked down”.
